{"source": "patent US10383948B2", "about": "“Anti-cMet antibody drug conjugates and methods for their use” (AbbVie Inc., priority 2016, dated 2019)", "key": {"EBC-1": {"tested_on": "EBC-1", "assay": "Cytotoxicity assay (CellTiter-Glo, 6 days)", "format": "cell-based, human", "conditions": "EBC-1 lung cancer; relative to untreated control at ≤1 μg/mL in a six day proliferation", "procedure": "(§1) Tumor cells were plated at 2000-5000 cells/well in 180 μL growth medium containing 10% FBS in 96-well plates, and cultured at 37° C. in a humidified incubator with 5% C02. The following day, titrations of antibodies or ADCs in 20 μL were added and cells were incubated for 6 days. Cell viability was determined using a CellTiter-Glo Luminescent Cell Viability Assay (Promega) according to the manufacturer's instructions. A non-binding, irrelevant negative control ADC conjugated to MMAE was also included in all assays to confirm that cell killing was antigen dependent.\nas §1, with “of” for “of antibodies or”, “antigen-dependent.” for “antigen dependent.”"}, "NCI-H1650": {"tested_on": "NCI-H1650", "assay": "Cytotoxicity assay (CellTiter-Glo, 6 days)", "format": "cell-based, human", "conditions": "NCI-H1650 lung cancer; relative to untreated control at ≤1 μg/mL in a six day proliferation", "procedure": "as §1\nas §1, with “of” for “of antibodies or”, “antigen-dependent.” for “antigen dependent.”"}, "U87MG": {"tested_on": "U87MG", "assay": "Cytotoxicity assay (CellTiter-Glo, 6 days)", "format": "cell-based, human", "conditions": "U-87MG glioblastoma; relative to untreated control at ≤1 μg/mL in a six day proliferation", "procedure": "as §1\nas §1, with “of” for “of antibodies or”, “antigen-dependent.” for “antigen dependent.”"}, "CTG-0178 NSCL PDX": {"tested_on": "CTG-0178 NSCL PDX", "assay": "Patient-derived xenograft, tumor growth delay", "format": "in vivo, NSG mice", "conditions": "PDX CTG-0178 (NSCL); every seven days, six doses; median time to 1 cm^3 vs control", "procedure": "(§2) Tumor fragments of 3 to 5 mm^3 at passage 3 (P3) were implanted subcutaneously in the right rear flank of NSG mice (The Jackson Laboratory) with a trochar. ABBV-399 and ABT-700 PBD were administered every seven days for a total of six doses. […] For all groups, tumor volumes were plotted only for the duration that allowed the full set of animal to remain on study. If animals had to be taken off study, the remaining animals were monitored for tumor growth until they reached defined end-points."}, "CTG-0165 NSCL PDX": {"tested_on": "CTG-0165 NSCL PDX", "assay": "Patient-derived xenograft, tumor growth delay", "format": "in vivo, NSG mice", "conditions": "PDX CTG-0165 (NSCL); every seven days, six doses; median time to 1 cm^3 vs control", "procedure": "as §2"}, "CTG-0406 colorectal PDX": {"tested_on": "CTG-0406 colorectal PDX", "assay": "Patient-derived xenograft, tumor growth delay", "format": "in vivo, NSG mice", "conditions": "PDX CTG-0406 (Colorectal); every seven days, six doses; median time to 1 cm^3 vs control", "procedure": "as §2"}, "CTG-0796 colorectal PDX": {"tested_on": "CTG-0796 colorectal PDX", "assay": "Patient-derived xenograft, tumor growth delay", "format": "in vivo, NSG mice", "conditions": "PDX CTG-0796 (Colorectal); every seven days, six doses; median time to 1 cm^3 vs control", "procedure": "as §2"}, "CTG-0358 colorectal PDX": {"tested_on": "CTG-0358 colorectal PDX", "assay": "Patient-derived xenograft, tumor growth delay", "format": "in vivo, NSG mice", "conditions": "PDX CTG-0358 (Colorectal); every seven days, six doses; median time to 1 cm^3 vs control", "procedure": "as §2"}, "CTG-0170 NSCL PDX": {"tested_on": "CTG-0170 NSCL PDX", "assay": "Patient-derived xenograft, tumor growth delay", "format": "in vivo, NSG mice", "conditions": "PDX CTG-0170 (NSCL); every seven days, six doses; median time to 1 cm^3 vs control", "procedure": "as §2"}, "CTG-0084 colorectal PDX": {"tested_on": "CTG-0084 colorectal PDX", "assay": "Patient-derived xenograft, tumor growth delay", "format": "in vivo, NSG mice", "conditions": "PDX CTG-0084 (Colorectal); every seven days, six doses; median time to 1 cm^3 vs control", "procedure": "as §2"}, "CTG-0159 NSCL PDX": {"tested_on": "CTG-0159 NSCL PDX", "assay": "Patient-derived xenograft, tumor growth delay", "format": "in vivo, NSG mice", "conditions": "PDX CTG-0159 (NSCL); every seven days, six doses; median time to 1 cm^3 vs control", "procedure": "as §2"}, "CTG-0363 NSCL PDX": {"tested_on": "CTG-0363 NSCL PDX", "assay": "Patient-derived xenograft, tumor growth delay", "format": "in vivo, NSG mice", "conditions": "PDX CTG-0363 (NSCL); every seven days, six doses; median time to 1 cm^3 vs control", "procedure": "as §2"}, "CTG-0058 colorectal PDX": {"tested_on": "CTG-0058 colorectal PDX", "assay": "Patient-derived xenograft, tumor growth delay", "format": "in vivo, NSG mice", "conditions": "PDX CTG-0058 (Colorectal); every seven days, six doses; median time to 1 cm^3 vs control", "procedure": "as §2"}, "CTG-0176 NSCL PDX": {"tested_on": "CTG-0176 NSCL PDX", "assay": "Patient-derived xenograft, tumor growth delay", "format": "in vivo, NSG mice", "conditions": "PDX CTG-0176 (NSCL); every seven days, six doses; median time to 1 cm^3 vs control", "procedure": "as §2"}, "CTG-0117 colorectal PDX": {"tested_on": "CTG-0117 colorectal PDX", "assay": "Patient-derived xenograft, tumor growth delay", "format": "in vivo, NSG mice", "conditions": "PDX CTG-0117 (Colorectal); every seven days, six doses; median time to 1 cm^3 vs control", "procedure": "as §2"}, "CTG-0440 colorectal PDX": {"tested_on": "CTG-0440 colorectal PDX", "assay": "Patient-derived xenograft, tumor growth delay", "format": "in vivo, NSG mice", "conditions": "PDX CTG-0440 (Colorectal); every seven days, six doses; median time to 1 cm^3 vs control", "procedure": "as §2"}, "CTG-0115 colorectal PDX": {"tested_on": "CTG-0115 colorectal PDX", "assay": "Patient-derived xenograft, tumor growth delay", "format": "in vivo, NSG mice", "conditions": "PDX CTG-0115 (Colorectal); every seven days, six doses; median time to 1 cm^3 vs control", "procedure": "as §2"}, "CTG-0062 colorectal PDX": {"tested_on": "CTG-0062 colorectal PDX", "assay": "Patient-derived xenograft, tumor growth delay", "format": "in vivo, NSG mice", "conditions": "PDX CTG-0062 (Colorectal); every seven days, six doses; median time to 1 cm^3 vs control", "procedure": "as §2"}, "CTG-0382 colorectal PDX": {"tested_on": "CTG-0382 colorectal PDX", "assay": "Patient-derived xenograft, tumor growth delay", "format": "in vivo, NSG mice", "conditions": "PDX CTG-0382 (Colorectal); every seven days, six doses; median time to 1 cm^3 vs control", "procedure": "as §2"}, "CTG-0419 colorectal PDX": {"tested_on": "CTG-0419 colorectal PDX", "assay": "Patient-derived xenograft, tumor growth delay", "format": "in vivo, NSG mice", "conditions": "PDX CTG-0419 (Colorectal); every seven days, six doses; median time to 1 cm^3 vs control", "procedure": "as §2"}, "CTG-0164 NSCL PDX": {"tested_on": "CTG-0164 NSCL PDX", "assay": "Patient-derived xenograft, tumor growth delay", "format": "in vivo, NSG mice", "conditions": "PDX CTG-0164 (NSCL); every seven days, six doses; median time to 1 cm^3 vs control", "procedure": "as §2"}, "[1]": {"tested_on": "EBC-1 ABT-700R xenograft tumors", "assay": "ABT-700-refractory xenograft efficacy", "format": "in vivo, mice", "conditions": "EBC-1, ABT-700 followed by ABBV-399; FIG. 12C"}}}
{"substance": "ABBV-399: ADC comprised of the cMet targeting antibody ABT-700 conjugated to MMAE through a valine citrulline (vc) linker", "values": [{"measurement": "Maximal Killing", "setting": "EBC-1", "value": 96, "unit": "%"}, {"measurement": "Maximal Killing", "setting": "NCI-H1650", "value": 13, "unit": "%"}, {"measurement": "Maximal Killing", "setting": "U87MG", "value": 30, "unit": "%"}, {"measurement": "TGD (%) tumor growth delay", "setting": "CTG-0178 NSCL PDX", "value": 0, "unit": "%"}, {"measurement": "TGD (%) tumor growth delay", "setting": "CTG-0165 NSCL PDX", "value": 170, "unit": "%"}, {"measurement": "TGD (%) tumor growth delay", "setting": "CTG-0406 colorectal PDX", "value": 0, "unit": "%"}, {"measurement": "TGD (%) tumor growth delay", "setting": "CTG-0796 colorectal PDX", "value": 78, "unit": "%"}, {"measurement": "TGD (%) tumor growth delay", "setting": "CTG-0358 colorectal PDX", "value": 94, "unit": "%"}, {"measurement": "TGD (%) tumor growth delay", "setting": "CTG-0170 NSCL PDX", "value": 336, "unit": "%"}, {"measurement": "TGD (%) tumor growth delay", "setting": "CTG-0084 colorectal PDX", "value": 0, "unit": "%"}, {"measurement": "TGD (%) tumor growth delay", "setting": "CTG-0159 NSCL PDX", "value": 288, "unit": "%"}, {"measurement": "TGD (%) tumor growth delay", "setting": "CTG-0363 NSCL PDX", "value": 0, "unit": "%"}, {"measurement": "TGD (%) tumor growth delay", "setting": "CTG-0058 colorectal PDX", "value": 71, "unit": "%"}, {"measurement": "TGD (%) tumor growth delay", "setting": "CTG-0176 NSCL PDX", "value": 71, "unit": "%"}, {"measurement": "TGD (%) tumor growth delay", "setting": "CTG-0117 colorectal PDX", "value": 0, "unit": "%"}, {"measurement": "TGD (%) tumor growth delay", "setting": "CTG-0440 colorectal PDX", "value": 12, "unit": "%"}, {"measurement": "TGD (%) tumor growth delay", "setting": "CTG-0115 colorectal PDX", "value": 114, "unit": "%"}, {"measurement": "TGD (%) tumor growth delay", "setting": "CTG-0062 colorectal PDX", "value": 0, "unit": "%"}, {"measurement": "TGD (%) tumor growth delay", "setting": "CTG-0382 colorectal PDX", "value": 126, "unit": "%"}, {"measurement": "TGD (%) tumor growth delay", "setting": "CTG-0419 colorectal PDX", "value": 54, "unit": "%"}, {"measurement": "TGD (%) tumor growth delay", "setting": "CTG-0164 NSCL PDX", "value": 25, "unit": "%"}, {"measurement": "tumor response", "setting": "[1]", "value": "remained sensitive"}]}
